# Assays:
# Conditions in all cases: 72 h
# Caco-2 [1] = test: cell viability relative to DMSO; higher = less toxic
# Calu-3 [2] = test: as above
# Vero E6 [3] = test: as above
# HepG2 [4] = test: as above
# Caco-2 [5] = test: drug sensitivity score (DSS) for viability; higher = more toxic; extreme values may be limits of the assay
# Calu-3 [6] = test: as above
# Vero E6 [7] = test: as above
# HepG2 [8] = test: as above
# Caco-2 [9] = test: relative viability EC50 (midpoint between 100% and the lowest measured viability); higher = less toxic
# Calu-3 [10] = test: as above
# Vero E6 [11] = test: as above
# HepG2 [12] = test: as above
# U2OS [13] = test: cell viability relative to DMSO; higher = less toxic
# U2OS [14] = test: drug sensitivity score (DSS) for viability; higher = more toxic; extreme values may be limits of the assay
SMILES,cell viability (Caco-2 [1]; 1 nM) [%],cell viability (Caco-2 [1]; 10 nM) [%],cell viability (Caco-2 [1]; 100 nM) [%],cell viability (Caco-2 [1]; 1000 nM) [%],cell viability (Caco-2 [1]; 10000 nM) [%],cell viability (Calu-3 [2]; 1 nM) [%],cell viability (Calu-3 [2]; 10 nM) [%],cell viability (Calu-3 [2]; 100 nM) [%],cell viability (Calu-3 [2]; 1000 nM) [%],cell viability (Calu-3 [2]; 10000 nM) [%],cell viability (Vero E6 [3]; 1 nM) [%],cell viability (Vero E6 [3]; 10 nM) [%],cell viability (Vero E6 [3]; 100 nM) [%],cell viability (Vero E6 [3]; 1000 nM) [%],cell viability (Vero E6 [3]; 10000 nM) [%],cell viability (HepG2 [4]; 1 nM) [%],cell viability (HepG2 [4]; 10 nM) [%],cell viability (HepG2 [4]; 100 nM) [%],cell viability (HepG2 [4]; 1000 nM) [%],cell viability (HepG2 [4]; 10000 nM) [%],drug sensitivity score (Caco-2 [5]),drug sensitivity score (Calu-3 [6]),drug sensitivity score (Vero E6 [7]),drug sensitivity score (HepG2 [8]),relative viability EC50 (Caco-2 [9]) [µM],relative viability EC50 (Calu-3 [10]) [µM],relative viability EC50 (Vero E6 [11]) [µM],relative viability EC50 (HepG2 [12]) [µM],cell viability (U2OS [13]; 1 nM) [%],cell viability (U2OS [13]; 10 nM) [%],cell viability (U2OS [13]; 100 nM) [%],cell viability (U2OS [13]; 1000 nM) [%],cell viability (U2OS [13]; 10000 nM) [%],drug sensitivity score (U2OS [14])
CC(C)c1nnc(-c2ccc(-c3ccccc3)nc2)n1-c1cccc2nonc12 [ASP-2535],104,99,96.4,95.5,96.2,103,92.2,103,93.3,103,98.8,102,97.8,102,92.9,104,106,107,107,88.7,0,0,0,0,> 10,> 10,> 10,> 10,–,–,–,–,–,–
CC(=O)N1CCN(CCOc2ccc(C3CCN(C4=Nn5c(nnc5C(F)(F)F)CC4)CC3)cc2)CC1 [AZD3514],90.2,99.3,93.7,98.3,75.9,98.2,96.1,89.4,107,91,104,98.3,92.2,90.7,59.1,88.9,95.9,82.4,91.4,43.2,1.1,0,3.4,4.5,> 10,> 10,–,1.97,99.8,94,99.4,94.9,69.9,2.1
Cc1nc(C)c(-c2ccc(C3CCC(CC(=O)O)CC3)cc2)nc1C(N)=O (centres undefined) [AZD7687],116,99.6,97.7,102,86.2,104,104,98.2,96.7,105,103,100,97.3,99.9,98.5,105,104,109,102,92.1,0.1,0,0,0,> 10,> 10,> 10,> 10,–,–,–,–,–,–
Cc1cc2sc(NC(=O)Cc3ccccc3)nc2cc1Cl [LH846],95.8,93.3,101,110,101,115,105,110,100,92.7,96.5,99.2,98,93.5,107,98.7,119,103,102,108,0,0,0,0,> 10,> 10,> 10,> 10,–,–,–,–,–,–
CC(=O)c1cc([N+](=O)[O-])c(Sc2cccc(Cl)c2Cl)s1 [P5091],100,90,98.8,87.2,52.1,110,93.3,93.5,96.9,106,99.4,97.5,97.2,99.7,90.4,95.7,97.9,93.3,105,93.7,4.5,0,0,0,–,> 10,> 10,> 10,95.9,97.3,97.9,96.9,60.4,2.4
CC(=O)OCC(=O)[C@@]1(O)CC[C@H]2[C@@H]3CCC4=CC(=O)C=C[C@]4(C)[C@@]3(Cl)[C@@H](Cl)C[C@@]21C [dichlorisone-acetate],105,103,99.7,105,110,98.9,107,100,89.2,102,105,102,102,98.7,105,96.4,94.5,99,99.3,92.4,0,0,0,0,> 10,> 10,> 10,> 10,–,–,–,–,–,–
O=C(Cc1ccc(-c2ccccc2)cc1)Nc1ccccn1 [difenpiramide],98.4,107,100,107,82.9,107,99.3,96.9,96.4,102,106,111,104,103,98.5,117,118,109,110,43.6,0.2,0,0,2.4,> 10,> 10,> 10,3.89,–,–,–,–,–,–
COC(=O)Nc1nc2cc(Sc3ccccc3)ccc2[nH]1 [fenbendazole],94.2,95.8,104,81.3,66.2,98.1,86.1,97.7,83.6,86.4,105,108,104,90.2,46.7,103,105,93.3,79.1,41,3.8,1,4.5,5.6,–,> 10,1.81,1.39,103,97.8,101,83.5,61.7,4.1
CCCCC1=NC2(CCCC2)C(=O)N1Cc1ccc(-c2ccccc2-c2nnn[nH]2)cc1 [irbesartan],109,97.1,106,104,109,100,97.1,100,101,108,100,101,99.7,93.6,94.6,107,104,102,99.9,106,0,0,0,0,> 10,> 10,> 10,> 10,–,–,–,–,–,–
NC(=O)c1cccnc1 [nicotinamide],100,107,94.9,99.2,101,107,114,120,110,94.1,107,108,102,104,99.5,114,103,101,101,90.2,0,0,0,0,> 10,> 10,> 10,> 10,–,–,–,–,–,–
Cc1cc(CCCOc2c(C)cc(-c3noc(C(F)(F)F)n3)cc2C)on1 [pleconaril],96.6,102,103,102,105,97.8,93.7,96,90.3,93.9,94.2,96.8,91.6,92.5,98,98.6,94.2,102,103,112,0,0,0,0,> 10,> 10,> 10,> 10,–,–,–,–,–,–
CC(=O)Nc1ccc(OCC(O)CNC(C)C)cc1 (centres undefined) [practolol],107,93.5,81.2,91.7,92,108,114,111,100,99.7,110,102,106,106,93.7,94.1,105,97.3,109,87.3,0.4,0,0,0,> 10,> 10,> 10,> 10,–,–,–,–,–,–
CCCN(CCC)C(=O)C(CCC(=O)O)NC(=O)c1ccccc1 (centres undefined) [proglumide],102,105,95.7,104,102,100,113,104,89.9,96.2,104,100,98.8,97.8,107,98,104,107,109,106,0,0,0,0,> 10,> 10,> 10,> 10,–,–,–,–,–,–
c1ccc2c(c1)CCCC2C1=NCCN1 (centres undefined) [tetrahydrozoline],105,101,99,92.5,106,109,97.9,112,110,99.5,68.7,103,61.2,108,68.4,93,104,91.2,100,104,0,0,0.7,0,> 10,> 10,–,> 10,–,–,–,–,–,–
COc1cc2ncc(-c3ccccc3)nc2cc1OC [tyrphostin-AG-1296],92.7,104,91.6,96.2,95.4,102,86.2,91.3,84.8,100,95.4,99.8,96.3,98,99.5,107,108,98.1,106,95.8,0,0,0,0,> 10,> 10,> 10,> 10,–,–,–,–,–,–

# From the supplement of paper PMC13380429
